According to PubChem BioAssay AID1996:
≈ marks a conversion by molar mass, not a printed value.

Conditions: buffer; pH 7.4; 200.0 µM

| SMILES | solubility kinetic [µg/mL] |
| --- | --- |
| COc1ccccc1OCCNC(=O)C(c1ccccc1)c1ccccc1 | 2.2 (≈ 6.09 µM) |
| CC(=O)c1cc(C)ccc1OC(=O)CN1C(=O)c2ccccc2C1=O | 24.6 (≈ 72.9 µM) |
| COc1ccccc1OCC#CCN1CCCC1.O=C(O)C(=O)O | > 50.3 |
| O=C1c2cccnc2C(=O)N1c1cccc([N+](=O)[O-])c1 | > 40.4 |
| Cc1cc(SCC#N)nc2ccccc12 | 14.6 (≈ 68.1 µM) |
| O=C(OCc1cccc([N+](=O)[O-])c1)c1cc2ccccc2oc1=O | < 0.7 |
| Cc1ccc(C(=O)N/N=C\c2cccnc2)s1 | > 36.8 |
| Cc1ccsc1C(=O)NC1CCCCC1C (centres undefined) | > 35.6 |
| Cc1cc(NC(=O)c2ccc3c(c2)C(=O)N(CC(C)C)C3=O)no1 | 2.1 (≈ 6.42 µM) |
| Cc1cc(NC(=O)CSc2ccccn2)no1 | > 37.4 |
| O=[N+]([O-])c1ccc(S(=O)(=O)c2ccccc2)nc1 | > 39.6 |
| Cc1ccc(S(=O)(=O)NCc2ccc3c(c2)OCO3)cc1C | 5 (≈ 15.7 µM) |
| O=C(COC(=O)c1c(F)cccc1Cl)NC1CCCC1 | > 45 |
| CC(NC(=O)C(c1ccccc1)c1ccccc1)C(=O)N1CCCCC1 (centres undefined) | 49.3 (≈ 141 µM) |
| NS(=O)(=O)c1cccc(NC(=O)c2cccc(S(=O)(=O)N3CCCCCC3)c2)c1 | 49.9 (≈ 114 µM) |
| O=C1Nc2ccccc2C(c2ccccc2)=NC1O (centres undefined) | > 37.8 |
| CC(=O)Nc1ccc(C(=O)CN2C(=O)NC3(CCCc4ccccc43)C2=O)c(F)c1 (centres undefined) | 53 (≈ 129 µM) |
| Cc1cc(C)c(C#N)c(SCc2ccccc2F)n1 | < 0.3 |
| CC(C(=O)N(C)C)N1c2cccc3cccc(c23)S1(=O)=O (centres undefined) | 19.9 (≈ 65.4 µM) |
| COc1cc(-c2c(C#N)c(N)nc3[nH]c(=S)[nH]c(=O)c23)ccc1O | 11.7 (≈ 34.3 µM) |

| SMILES | solubility kinetic [µg/mL] |
| --- | --- |
| Cc1nc2oc3ccc(F)cc3c(=O)c2cc1C(=O)O | 40.8 (≈ 149 µM) |
| CC(=O)Nc1nc2ccc(S(=O)(=O)N3CCCC3)cc2s1 | 3.1 (≈ 9.53 µM) |
| COc1cc(S(=O)(=O)Nc2ccc3c(c2)C(=O)N(C)C3=O)ccc1NC(C)=O | > 60.5 |
| CN(C)c1ccc(N2C(=O)CC(c3ccccc3)CC2=O)cc1 | 12.3 (≈ 39.9 µM) |
| NCCCS(=O)(=O)O.O.[Na+] | 2.9 |
| O=C1OCc2ccc(NC(=O)c3c(F)cccc3Cl)cc21 | 2 (≈ 6.54 µM) |
| O=S(=O)(c1ccc(Cl)cc1)N1CCCCCC1 | 11.4 (≈ 41.6 µM) |
| CC(OC(=O)C1CCCCC1)C(=O)Nc1cccc(Cl)c1 (centres undefined) | 22.3 (≈ 72 µM) |
| Cc1cccc(C)c1OCC(=O)Nc1ccncc1 | 21.8 (≈ 85.1 µM) |
| CC1CN=C(Nc2ccc(F)c(Cl)c2)S1 (centres undefined) | 17.3 (≈ 70.7 µM) |
| CCOc1ccccc1NC(=O)N1CCCc2ccccc21 | < 0.3 |
| Cc1ccccc1C(=O)Nc1cccc(C(=O)Nc2ccccc2C(=O)O)c1 | > 56.2 |
| CC(C)CCN1CCN(C/C=C/c2ccco2)CC1CCO (centres undefined) | 45.3 (≈ 148 µM) |
| CC1=CC(C)(C)NC(=S)N1c1ccc(C)c(C)c1 | 2.1 (≈ 8.06 µM) |
| O=S(=O)(Nc1ccc(Cl)c(Cl)c1)N1CCOCC1 | > 46.7 |
| CCOC(=O)c1c(C)[n+]([O-])c2ccc3c(non3O)c12 | 8.7 (≈ 31.4 µM) |
| COc1ccccc1NC(=O)c1cc(N)cc(C(=O)Nc2ccccc2OC)c1 | 29.5 (≈ 75.4 µM) |
| CNC(=O)N1c2ccccc2CCc2ccccc21 | > 37.8 |
| CCOc1cc(C2NC(=O)c3ccccc3O2)ccc1OC(C)C (centres undefined) | 14.1 (≈ 43.1 µM) |
| CCOCCCNC(=O)/C(C#N)=C/c1cc(C)c(O)c(C)c1 | 7 (≈ 23.2 µM) |

| SMILES | solubility kinetic [µg/mL] |
| --- | --- |
| Cc1cc(C)n2nc(SCC(=O)N3CCCC3)nc2n1 | > 43.7 |
| O=C(c1ccc(Br)cc1)N1CCN(Cc2ccccc2)CC1 | 38.9 (≈ 108 µM) |
| Cc1ccc2c(c1)N(CC(=O)Nc1nccs1)C(=O)CO2 | 1.3 (≈ 4.29 µM) |
| Cc1ccc(OC(=O)c2cncc(Br)c2)c(C)c1 | 6.8 (≈ 22.2 µM) |
| Cc1ccsc1CNC(=O)c1c(-c2ccccc2)noc1C | 22.2 (≈ 71.1 µM) |
| CN(c1c[nH]c(=O)[nH]c1=O)C1CCCCC1 | > 33.5 |
| Cl.NCCNc1ccc([N+](=O)[O-])cc1 | > 32.6 |
| Cl.c1ccc(CCNCc2cccnc2)cc1 | 35.3 |
| O=C(Nc1nc2ccccc2[nH]1)c1ccc(OC(F)F)cc1 | 2.4 (≈ 7.91 µM) |
| COc1cc([N+](=O)[O-])cc2sc(NC(=O)C(C)(C)C)nc12 | < 0.2 |
| CCCN1CCN(c2ccc(S(N)(=O)=O)cc2[N+](=O)[O-])CC1 | 32.9 (≈ 100 µM) |
| Cc1cc(C)cc(NS(=O)(=O)c2csc(C(N)=O)c2)c1 | > 46.6 |
| O=C(CN1C(=O)c2ccccc2C1=O)Nc1ccccc1N1CCOCC1 | > 54.8 |
| O=C(NN1CCOCC1)c1ccccc1Br | > 42.8 |
| CCC(=O)NC(=S)Nc1ccc(NC(=O)c2cccnc2)cc1 | 13.1 (≈ 39.9 µM) |
| O=C(COC(=O)c1cc(S(=O)(=O)N2CCOCC2)c(Cl)cc1Cl)NCc1ccco1 | > 71.6 |
| O=C(Nc1ccc(Cl)c(S(=O)(=O)N2CCOCC2)c1)C1CCCC1 | > 55.9 |
| CC1(C)CC2CC(C)(CN2C(=S)Nc2ccccc2F)C1 (centres undefined) | 44 (≈ 144 µM) |
| Cc1cc(C)nc(SCC(=O)c2ccc(Cl)cc2)n1 | 33.5 (≈ 114 µM) |
